Reference: ChEMBL document CHEMBL1201862, “PubChem BioAssay data set” (2004)
“And” between values parts separate entries of the source, which are not always exact repeats. Equal values may be shown once.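 Dose response: 5 concentrations. Exposure: 48 h. Format: 96-well plates. Endpoint: linear interpolation; highest concentration if not reached. At the GI50, growth is halved.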 The source made the active and inactive calls. Rule as the data show it: active = GI50 up to about 1.1 µM and inactive = higher. Non-standard residues stand in square brackets, D forms with d. Residues, ends and D or L forms follow the SMILES beside them. ξ: configuration not given here. *: point of attachment. ξF = NC(Cc1ccccc1)C(=O)O; Cbz = O=C(OCc1ccccc1)*; Aib = CC(C)(N)C(=O)O

Legend:
Assay in all cases: growth of human tumour cells (NCI), 48 h
[1] = system: SF-295
[2] = system: K562
[3] = system: OVCAR-8
[4] = system: SK-MEL-28
[5] = system: OVCAR-4
[6] = system: SF-539
[7] = system: HCC 2998
[8] = system: SW-620
[9] = system: IGROV-1
[10] = system: RPMI-8226
[11] = system: COLO 205
[12] = system: Malme-3M
[13] = system: SNB-75
[14] = system: SNB-19
[15] = system: NCI-H23
[16] = system: EKVX
[17] = system: SK-MEL-5
[18] = system: NCI-H522
[19] = system: M14
[20] = system: TK-10

Compound: Nc1ccn(C2OC(COP(=O)(O)Oc3ccccc3)C(O)C2O)c(=O)n1 (stereo not drawn)
- GI50 [1]: > 100 µM (inactive)
- GI50 [2]: > 70.6 µM (inactive)
- GI50 [3]: 7.67 µM (inactive)
- GI50 [4]: 9.38 µM (inactive)
- GI50 [5]: > 100 µM (inactive)
- GI50 [6]: 93.3 µM (inactive)
- GI50 [7]: > 100 µM (inactive)
- GI50 [8]: > 100 µM (inactive)
- GI50 [9]: > 56.5 µM (inactive)
- GI50 [10]: > 100 µM (inactive)
- GI50 [11]: 61.9 µM (inactive)
- GI50 [12]: > 35.3 µM (inactive)
- GI50 [13]: > 100 µM (inactive)
- GI50 [14]: > 59.4 µM (inactive)
- GI50 [15]: 7.36 µM (inactive)
- GI50 [16]: 13.5 µM (inactive)
- GI50 [17]: > 42.9 µM (inactive)
- GI50 [18]: 16.6 µM (inactive)

Compound: c1cc(CNC2C3CCC(C3)C2c2c[nH]c3ccccc23)cc(CNC2C3CCC(C3)C2c2c[nH]c3ccccc23)c1 (stereo not drawn)
- GI50 [1]: 1.73 µM (inactive) and 1.46 µM (inactive)
- GI50 [2]: 155 nM (active) and 203 nM (active)
- GI50 [3]: 1.4 µM (inactive) and 1.46 µM (inactive)
- GI50 [5]: 1.7 µM (inactive) and 1.58 µM (inactive)
- GI50 [7]: 127 nM (active) and 145 nM (active)
- GI50 [9]: 1.35 µM (inactive) and 1.59 µM (inactive)
- GI50 [19]: 667 nM (active) and 638 nM (active)
- GI50 [10]: 0.207 µM (active)
- GI50 [12]: 1.87 µM (inactive) and 1.77 µM (inactive)
- GI50 [13]: 752 nM (active) and 1.3 µM (inactive)
- GI50 [14]: 1.41 µM (inactive) and 1.39 µM (inactive)
- GI50 [15]: 1.68 µM (inactive) and 1.77 µM (inactive)
- GI50 [16]: 1.76 µM (inactive) and 1.58 µM (inactive)
- GI50 [20]: 1.73 µM (inactive) and 1.94 µM (inactive)
- GI50 [17]: 1.85 µM (inactive) and 1.91 µM (inactive)
- GI50 [18]: 1.12 µM (active) and 1.36 µM (inactive)

Compound: Oc1ccc(Br)cc1/C=N/C1CCCCC1
- GI50 [1]: 41.8 µM (inactive)
- GI50 [2]: 17.7 µM (inactive)
- GI50 [3]: 20.5 µM (inactive)
- GI50 [4]: 43.3 µM (inactive)
- GI50 [5]: 21.1 µM (inactive)
- GI50 [6]: 38.7 µM (inactive)
- GI50 [7]: 25.5 µM (inactive)
- GI50 [8]: 24.8 µM (inactive)
- GI50 [9]: 24.1 µM (inactive)
- GI50 [19]: 34.8 µM (inactive)
- GI50 [10]: 28.1 µM (inactive)
- GI50 [11]: 65.5 µM (inactive)
- GI50 [12]: 27.6 µM (inactive)
- GI50 [14]: 53 µM (inactive)
- GI50 [15]: 34.4 µM (inactive)
- GI50 [16]: > 100 µM (inactive)
- GI50 [20]: > 100 µM (inactive)
- GI50 [17]: 19.2 µM (inactive)
- GI50 [18]: 55.3 µM (inactive)

Compound: C[n+]1cccc2c(=O)c3ccccc3oc21
- GI50 [1]: > 100 µM (inactive)
- GI50 [2]: > 100 µM (inactive)
- GI50 [3]: > 100 µM (inactive)
- GI50 [4]: > 100 µM (inactive)
- GI50 [5]: > 100 µM (inactive)
- GI50 [6]: > 100 µM (inactive)
- GI50 [7]: > 100 µM (inactive)
- GI50 [8]: > 100 µM (inactive)
- GI50 [9]: > 100 µM (inactive)
- GI50 [19]: > 100 µM (inactive)
- GI50 [11]: > 100 µM (inactive)
- GI50 [12]: > 100 µM (inactive)
- GI50 [13]: > 100 µM (inactive)
- GI50 [14]: > 100 µM (inactive)
- GI50 [15]: > 100 µM (inactive)
- GI50 [16]: > 100 µM (inactive)
- GI50 [20]: > 100 µM (inactive)
- GI50 [17]: > 100 µM (inactive)
- GI50 [18]: > 100 µM (inactive)

Compound: C=CCCCC12CCCc3cccc(c31)NC2=O (stereo not drawn)
- GI50 [1]: 76.2 µM (inactive)
- GI50 [2]: 22 µM (inactive)
- GI50 [5]: 18.9 µM (inactive)
- GI50 [6]: 19.6 µM (inactive)
- GI50 [7]: 16.4 µM (inactive)
- GI50 [8]: 20 µM (inactive)
- GI50 [9]: 17.1 µM (inactive)
- GI50 [19]: 14.4 µM (inactive)
- GI50 [10]: 19.7 µM (inactive)
- GI50 [11]: 20.2 µM (inactive)
- GI50 [12]: 15.6 µM (inactive)
- GI50 [14]: 23.4 µM (inactive)
- GI50 [15]: 18.1 µM (inactive)
- GI50 [16]: 19.1 µM (inactive)
- GI50 [20]: 19.6 µM (inactive)
- GI50 [17]: 16.3 µM (inactive)
- GI50 [18]: 16.9 µM (inactive)

Compound: COc1ccc(-n2cnnc2-c2nsc3ccccc23)cc1
- GI50 [2]: 90.6 µM (inactive)
- GI50 [3]: > 100 µM (inactive)
- GI50 [4]: 78.2 µM (inactive)
- GI50 [5]: > 100 µM (inactive)
- GI50 [6]: 23.4 µM (inactive)
- GI50 [7]: > 100 µM (inactive)
- GI50 [8]: > 100 µM (inactive)
- GI50 [9]: > 100 µM (inactive)
- GI50 [19]: > 100 µM (inactive)
- GI50 [10]: 60 µM (inactive)
- GI50 [11]: > 100 µM (inactive)
- GI50 [13]: 22.2 µM (inactive)
- GI50 [14]: > 100 µM (inactive)
- GI50 [15]: 95.3 µM (inactive)
- GI50 [16]: > 100 µM (inactive)
- GI50 [20]: > 100 µM (inactive)
- GI50 [17]: > 100 µM (inactive)

Compound: CCC(/C(=N/NC(=O)C[N+](C)(C)C)c1ccccc1)C1OC(=O)c2ccccc21 (stereo not drawn)
- GI50 [1]: > 100 µM (inactive)
- GI50 [2]: > 100 µM (inactive)
- GI50 [3]: > 100 µM (inactive)
- GI50 [4]: > 100 µM (inactive)
- GI50 [5]: > 100 µM (inactive)
- GI50 [6]: > 100 µM (inactive)
- GI50 [7]: > 100 µM (inactive)
- GI50 [8]: > 100 µM (inactive)
- GI50 [9]: > 100 µM (inactive)
- GI50 [19]: > 100 µM (inactive)
- GI50 [10]: > 100 µM (inactive)
- GI50 [11]: > 100 µM (inactive)
- GI50 [12]: > 100 µM (inactive)
- GI50 [13]: > 100 µM (inactive)
- GI50 [14]: > 100 µM (inactive)
- GI50 [15]: > 100 µM (inactive)
- GI50 [20]: > 100 µM (inactive)
- GI50 [17]: > 100 µM (inactive)
- GI50 [18]: > 100 µM (inactive)

Compound: CCN(CC)CCn1c(=O)c2c(C)c3oc4ccccc4oc3c(C)c2c1=O
- GI50 [1]: > 100 µM (inactive)
- GI50 [2]: > 100 µM (inactive)
- GI50 [3]: > 100 µM (inactive)
- GI50 [5]: > 100 µM (inactive)
- GI50 [6]: > 100 µM (inactive)
- GI50 [7]: > 100 µM (inactive)
- GI50 [8]: > 100 µM (inactive)
- GI50 [9]: > 100 µM (inactive)
- GI50 [19]: > 100 µM (inactive)
- GI50 [10]: > 100 µM (inactive)
- GI50 [11]: > 100 µM (inactive)
- GI50 [12]: > 100 µM (inactive)
- GI50 [13]: > 100 µM (inactive)
- GI50 [14]: > 100 µM (inactive)
- GI50 [16]: > 100 µM (inactive)
- GI50 [20]: > 100 µM (inactive)
- GI50 [17]: > 100 µM (inactive)
- GI50 [18]: > 100 µM (inactive)

Compound: CN(C)C(=S)N/N=C(\C(=N/NC(=S)N(C)C)c1ccccn1)c1ccccn1
- GI50 [1]: 11.6 µM (inactive)
- GI50 [2]: 8.28 µM (inactive)
- GI50 [3]: 7.14 µM (inactive)
- GI50 [4]: 16.4 µM (inactive)
- GI50 [5]: 7.28 µM (inactive)
- GI50 [6]: 25.5 µM (inactive)
- GI50 [7]: 7.55 µM (inactive)
- GI50 [8]: 6.24 µM (inactive)
- GI50 [9]: 8.41 µM (inactive)
- GI50 [19]: 11.4 µM (inactive)
- GI50 [10]: 5.3 µM (inactive)
- GI50 [11]: 2.17 µM (inactive)
- GI50 [12]: 12.9 µM (inactive)
- GI50 [13]: 12.2 µM (inactive)
- GI50 [14]: 12.8 µM (inactive)
- GI50 [15]: 12.3 µM (inactive)
- GI50 [16]: 12 µM (inactive)
- GI50 [20]: 8.11 µM (inactive)
- GI50 [17]: 9.02 µM (inactive)
- GI50 [18]: 2.65 µM (inactive)

Compound: CCOC(=O)CNC(=O)C(Cc1ccccc1)NC(=O)C(C)(C)NC(=O)OCc1ccccc1 (stereo not drawn) (Cbz-[Aib]-[ξF]-Gly-OEt)
- GI50 [1]: > 100 µM (inactive)
- GI50 [2]: 33.1 µM (inactive)
- GI50 [3]: > 100 µM (inactive)
- GI50 [4]: 17.9 µM (inactive)
- GI50 [5]: > 100 µM (inactive)
- GI50 [7]: 43.5 µM (inactive)
- GI50 [8]: > 100 µM (inactive)
- GI50 [9]: > 100 µM (inactive)
- GI50 [19]: 37.7 µM (inactive)
- GI50 [10]: 32.6 µM (inactive)
- GI50 [11]: 93.1 µM (inactive)
- GI50 [12]: 18.6 µM (inactive)
- GI50 [14]: > 100 µM (inactive)
- GI50 [16]: > 100 µM (inactive)
- GI50 [20]: > 100 µM (inactive)
- GI50 [17]: 64.1 µM (inactive)
- GI50 [18]: 29.8 µM (inactive)

Compound: COC1=CC(=O)c2c(c(O)c3oc4cc(OC)cc(C)c4c(=O)c3c2O)C1=O [BIKAVERIN]
- GI50 [1]: 1.12 µM (inactive)
- GI50 [2]: 0.719 µM (active)
- GI50 [3]: 0.178 µM (active)
- GI50 [4]: 2.03 µM (inactive)
- GI50 [5]: 1.27 µM (inactive)
- GI50 [6]: 1.32 µM (inactive)
- GI50 [7]: 9.91 µM (inactive)
- GI50 [8]: 1.6 µM (inactive)
- GI50 [9]: 1.08 µM (active)
- GI50 [10]: 1.01 µM (active)
- GI50 [11]: 20.3 µM (inactive)
- GI50 [12]: 1.17 µM (inactive)
- GI50 [13]: 1.21 µM (inactive)
- GI50 [14]: 2.28 µM (inactive)
- GI50 [15]: 1.07 µM (active)
- GI50 [16]: 1.01 µM (active)
- GI50 [17]: 1 µM (active)
- GI50 [18]: 0.716 µM (active)
